Laboratory results from patent US4710564A, “Anthracycline compounds” (Microbial Chemistry Research Foundation, priority 1985, dated 1987).
In brackets after ≈: the same amount, converted by molar mass. Where two headings read alike, the source gives them in different places.

Columns and labels:
[1] = in vivo; settings: mouse, iv
[2] = tested on: P 388 leukemia; assay: animal or person; assay type: in vivo, CDF1 mice; settings: for ED (T/C 130%): Mus musculus, P388, po, read-out: Dose for T/C = 130%
[3] = Solubility
[4] = tested on: P388 leukemia; assay: Antitumor activity against P388 leukemia in mice, i.p. administration (T/C, therapeutic index); assay type: in vivo, CDF1 mice; settings: for ED (T/C 130%): Mus musculus, P388, ip, read-out: Dose for T/C = 130 %
[5] = tested on: Adriamycin-resistant P 388 leukemia cells (P 388/ADR); assay: cells; assay type: cell-based; settings: for IC50: Mus musculus, P388, 48 h, read-out: IC50 P388/ADR; for R/S: mouse, 2880 min
[6] = tested on: heart
[7] = tested on: P 388 leukemia; assay: animal or person; assay type: in vivo, CDF1 mice; settings: for ED (T/C 130%): Mus musculus, P388, iv, read-out: Dose for T/C = 130%
[8] = tested on: Lewis lung carcinoma; assay: Tumor growth inhibition against solid tumors (Lewis lung carcinoma); settings: for Tumor growth inhibition: i.v., days 1, 5 and 9, day 13
[9] = tested on: P 388 leukemia; settings: known from the art; cited from earlier work
[10] = comp. data from Japanese Patent Application Laid-Open Pub. No. 76896/1980; cited from earlier work
[11] = mouse, in vivo, po, 1 mg/kg/day
[12] = mouse, in vivo, po, 2 mg/kg/day
[13] = mouse, in vivo, po, 4 mg/kg/day
[14] = mouse, in vivo, ip, 0.5 mg/kg/day
[15] = mouse, in vivo, ip, 1 mg/kg/day
[16] = mouse, in vivo, ip, 2 mg/kg/day
[17] = mouse, in vivo, ip, 4 mg/kg/day
[18] = mouse, in vivo, iv, 1 mg/kg/day
[19] = mouse, in vivo, iv, 2 mg/kg/day
[20] = mouse, in vivo, iv, 4 mg/kg/day
[21] = mouse, in vivo, iv, 8 mg/kg/day
[22] = mouse, in vivo, po, 8 mg/kg/day
[23] = mouse, in vivo, po, 16 mg/kg/day
[24] = mouse, in vivo, ip, 8 mg/kg/day
[25] = mouse, in vivo, ip, 12 mg/kg/day
[26] = mouse, in vivo, po, 32 mg/kg/day
[27] = mouse, in vivo, ip, 16 mg/kg/day
[28] = mouse, in vivo, iv, 16 mg/kg/day
[29] = mouse, in vivo, iv, 32 mg/kg/day

Row | Compound | LD50 [1] [mg/kg] | ED (T/C 130%) [2] [mg/kg/day] | Therapeutic index ([2]; mouse, in vivo, po) | T/C [2, 11] | T/C [2, 12] | T/C [2, 13] | ED (T/C 130%) [4] [mg/kg/day] | Therapeutic index ([4]; mouse, in vivo, ip) | T/C [4, 14] | T/C [4, 15] | T/C [4, 16] | T/C [4, 17] | R/S [5] | ED (T/C 130%) [7] [mg/kg/day] | T/C [7, 19] | T/C [7, 20] | T/C [7, 21] | T/C [2, 22] | T/C [2, 23] | T/C [4, 24] | also measured
1 | CCC1(O)CC(OC2CC(N3CCOCC3)C(O)C(C)O2)c2c(O)c3c(c(O)c2C1O)C(=O)c1cccc(O)c1C3=O (stereo not shown) [3'-deamino-3'-(4-morpholinyl)-R20X2] | 3.55 | 0.58 | 3.4 | 164 | 228 | 103 | 0.35 | 5.7 | 150 | 186 | > 246 | > 158 | 1.22 | 0.43 | 204 | 194 | 35 |  |  |  | T/C ([2]; mouse, in vivo, po, 0.25 mg/kg/day): 109; T/C ([2]; mouse, in vivo, po, 0.5 mg/kg/day): 120; Solubility: insoluble ([3]; insoluble in): insoluble in water, hexane, cyclohexane, diethyl ether, and petroleum ether; Solubility: soluble ([3]; soluble in): Soluble in acidic water, basic water, methanol, ethanol, propanol, acetone, ethyl acetate, and chloroform; T/C ([4]; mouse, in vivo, ip, 0.25 mg/kg/day): 112; IC50 [5]: 0.011 µg/mL (≈ 0.0188 µM); toxicity to the heart at dosage level of maximum antitumor activity ([6]; dosage level T/C=max): not found to be toxic; Therapeutic index ([7]; mouse, in vivo, iv): 4.7; T/C ([7]; mouse, in vivo, iv, 0.25 mg/kg/day): 109; T/C ([7]; mouse, in vivo, iv, 0.5 mg/kg/day): 136; T/C [7, 18]: 154
2 | CCC1(O)Cc2c(O)c3c(c(O)c2C(OC2CC(N4CCOCC4)C(O)C(C)O2)C1)C(=O)c1c(O)cccc1C3=O (stereo not shown) [3'-deamino-3'-(4-morpholinyl)-R20X] | 12.3 | 1.45 |  | 111 | 146 | 170 | 0.75 |  | 104 | 148 | 177 | 218 |  | 2.5 | 119 | 155 | 151 | 214 | 219 | > 303 | T/C [4, 25]: 231; toxicity to the heart at dosage level of maximum antitumor activity ([6]; hamster, in vivo): not found to be toxic; T/C [7, 18]: 104; T/C ([7]; mouse, in vivo, iv, 12 mg/kg/day): 57
3 | CCC1(O)Cc2cc3c(c(O)c2C(OC2CC(N4CCOCC4)C(O)C(C)O2)C1)C(=O)c1c(O)cccc1C3=O (stereo not shown) [3'-deamino-3'-(4-morpholinyl)-R20Y5] | 65 | 4.3 |  |  |  | 127 | 6.2 |  |  |  |  | 104 |  | 4.9 | 104 | 123 | 148 | 154 | 191 | 146 | antitumor activity against solid tumors (in words) ([8]; Lewis lung carcinoma): antitumor activity comparable to or better than that of Adriamycin against solid tumors; Tumor growth inhibition ([8]; 4 mg/kg/day): 9.6%; Tumor growth inhibition ([8]; 8 mg/kg/day): 31.0%; Tumor growth inhibition ([8]; 16 mg/kg/day): 66.6%; Tumor growth inhibition ([8]; 32 mg/kg/day): 91.7%; T/C [2, 26]: 263; T/C ([2]; mouse, in vivo, po, 64 mg/kg/day): 238; antitumor activity compared with R20Y5 (in words) ([4]; comparison with R20Y5 of Japanese Laid-Open 76896/1980): antitumor activity of R20Y5 can be remarkably increased by 3'-deamino-3'-4-morpholinylation; T/C [4, 27]: 175; T/C ([4]; mouse, in vivo, ip, 32 mg/kg/day): 219; T/C ([4]; mouse, in vivo, ip, 64 mg/kg/day): 93; T/C [7, 28]: 182; T/C [7, 29]: > 240
4 | CC[C@@]1(O)C[C@H](O[C@H]2C[C@H](N(C)C)[C@H](O[C@H]3C[C@H](O)[C@H](O[C@H]4CCC(=O)[C@H](C)O4)[C@H](C)O3)[C@H](C)O2)c2c(cc3c(c2O)C(=O)c2c(O)cccc2C3=O)[C@H]1C(=O)OC [Aclacinomycin, reference compound] |  |  | 2.1 |  |  |  |  | 3.6 |  |  | 111 | 126 | 1.92 |  |  | 121 | 119 | 119 | 131 | 155 | effectiveness by oral administration (in words) [9]: effective in the case of oral administration; Dose for T/C = 130% ([2]; mouse, in vivo, po): 15 mg/kg/day; T/C [2, 26]: 154; Dose for T/C = 130% ([4]; mouse, in vivo, ip): 4.4 mg/kg/day; T/C [4, 27]: 182; IC50 P388/ADR [5]: 0.025 µg/mL (≈ 0.0308 µM); Dose for T/C = 130% ([7]; mouse, in vivo, iv): 12.4 mg/kg/day; Therapeutic index ([7]; mouse, in vivo, iv): 2.6; T/C [7, 28]: 151; T/C [7, 29]: 177; T/C ([7]; mouse, in vivo, iv, 64 mg/kg/day): 35
5 | COc1cccc2c1C(=O)c1c(O)c3c(c(O)c1C2=O)C[C@@](O)(C(=O)CO)C[C@@H]3O[C@H]1C[C@H](N)[C@H](O)[C@H](C)O1 [Adriamycin, reference compound] |  |  |  |  |  |  | < 0.25 |  | 177 | 191 | > 217 | 204 | 29.2 |  |  |  |  |  |  | > 256 | Tumor growth inhibition ([8]; 1 mg/kg/day): 34.5%; Tumor growth inhibition ([8]; 2 mg/kg/day): 14.1%; Tumor growth inhibition ([8]; 4 mg/kg/day): 64.2%; Tumor growth inhibition ([8]; 8 mg/kg/day): 72.8%; T/C [4, 25]: 194; IC50 [5]: 0.35 µg/mL (≈ 0.644 µM)
6 | CCC1(O)Cc2cc3c(c(O)c2C(OC2CC(N)C(O)C(C)O2)C1)C(=O)c1c(O)cccc1C3=O (stereo not shown) [R20Y5, 11-deoxy-13-deoxocarminomycin] |  |  |  |  |  |  |  |  |  |  |  |  |  |  |  |  |  |  |  |  | LD50 [10]: 15 mg/kg
